Columns and labels:
5-HT1A receptors = biological target: T1, 5-HT1A receptors (Rattus norvegicus, UniProt P19327); test: 5HT1A binding assay (3H-8-OH-DPAT, rat cerebral cortex + hippocampus homogenate); conditions: rat brain, 37°C, 10 minutes
T1 construct: Cerebral cortex + hippocampus from each rat was dissected and homogenized; from tissue; host or cells: rat cerebral cortex + hippocampus homogenate
T1 sequence (P19327 1-422): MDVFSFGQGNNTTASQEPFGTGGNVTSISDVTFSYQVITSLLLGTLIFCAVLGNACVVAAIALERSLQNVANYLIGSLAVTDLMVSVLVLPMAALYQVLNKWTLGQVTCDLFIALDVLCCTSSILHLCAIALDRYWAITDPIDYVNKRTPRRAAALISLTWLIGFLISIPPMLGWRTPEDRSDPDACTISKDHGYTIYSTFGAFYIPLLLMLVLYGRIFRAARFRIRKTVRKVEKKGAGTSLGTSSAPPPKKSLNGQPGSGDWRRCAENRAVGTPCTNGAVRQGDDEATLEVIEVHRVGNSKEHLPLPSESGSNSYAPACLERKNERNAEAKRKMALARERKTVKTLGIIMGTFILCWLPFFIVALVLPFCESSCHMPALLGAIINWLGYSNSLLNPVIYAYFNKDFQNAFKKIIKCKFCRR
Description: In order to evaluate the 5-HT-receptor stimulating effect and selectivity, the affinity for various receptors in rat brain were measured in vitro using receptor assay. The stereospecific (R)-enantiomeric compound of the invention (R)-3-(N-isopropyl-N-n-propylamino)-5-(N-isopropyl)carbamoylchroman has Ki 8.6 (nM) and the racemic compound 3-(N-isopropyl-N-n-propylamino)-5-(N-isopropyl)-carbamoylchroman has Ki 24 (nM). The Ki value for the (S)-enantiomer exceeded 1000 nM.
Method: 5HT1A binding assay. Cerebral cortex + hippocampus from each rat was dissected and homogenized in 15 ml ice-cold 50 mM Tris-HCl buffer 4.0 mM CaCl2 and 5.7 mM ascorbic acid, pH 7.5 with an Ultra-Turrax (Janke & Kunkel, Staufen, FRG) for ten s. After centrifugation for 12.5 min at 17,000 rpm (39,800 x g in a Beckman centrifuge with a chilled JA-17 rotor (Beckman, Palo Alto, CA, USA), the pellets were resuspended in the same buffer and homogenization and centrifugation repeated. To each pellet 5 ml ice-cold 0.32 M sucrose were added and homogenized for 5 sec. These samples were kept frozen at -70°C. When used they were diluted with the buffer to 8 mg tissue/ml and homogenized for 10 sec. The tissue homogenates were incubated for ten minutes at 37°C and then supplied with 10 µM pargyline followed by reincubation for 10 minutes.
The binding assay followed that described by Peroutka, J. Neurochem. 47, 529-540, (1986). The incubation mixture (2 ml) contained ^3H-8-OH-DPAT (0.25 to 8 nM), 5 mg/ml tissue homogenate in 50 mM Tris-HCl buffer containing 4.0 mM CaCl2 and 5.7 mM ascorbic acid, pH 7.5. Six different concentrations of ^3H-8-OH-DPAT were analyzed. Binding experiments were started by the addition of tissue homogenate and followed by incubation at 37°C for 10 minutes. […] The filters were washed twice with 5 ml ice-cold 50mM Tris-HCl buffer, pH 7.5, and counted with 5 ml Ready-solv HP (Beckman) in a Beckman LS 3801 scintillation counter. Non-specific binding was measured by the addition of 10 µM 5-HT to the reaction mixture. […]

[1] = Oral bioavailability in dogs (plasma AUC method, i.v. versus p.o.); assay type: in vivo; conditions: dog, 10 umol/kg, plasma level measurements, 1 µmol·kg^-1 i.v. and 10 µmol·kg^-1 p.o.
Description: Dose-effect studies in rat following subcutaneous versus oral administration further support a high availability of the compound at the receptor after oral administration.
Method: Assessment for oral bioavailability (systemic availability) was based on the plasma area under the curve (AUC) method. An aqueous saline solution of compound of the invention was administered intravenously (i.v.) and orally (p.o.) to the animals and concentrations of the compound in plasma measured at numerous timepoints. The doses administered were 1 µmol·kg^-1 and 10 µmol·kg^-1 for intravenous and oral administration, respectively. AUC was calculated according to the trapezoidal rule. Determination of the test compound in plasma was accomplished by an HPLC method which incorporated electrochemical detection.

synthesis rate of 5-HT = test: Synthesis of 5-HT: accumulation of 5-HTP in rat brain after NSD 1015; assay type: in vivo; conditions: compound given 30 min before NSD 1015
Description: Method: The rate of synthesis of 5-HT in the rat streatum was measured as the accumulation of 5-HTP during 30 min after inhibition of aromatic L-amino acid decarboxylase by NSD 1015 (decarboxylase inhibitor, 100 mg/kg i.p.). The test compound was administered 30 min before the NSD 1015. The regions of the brain to be examined were dissected, frozen and stored.
The levels of 5-HTP (5-hydroxytryptophan) was determined by use of high performance liquid chromatography (HPLC) with electrochemical detection according to the method of Magnusson, Nilsson and Westerlund (1980). The mobile phase was 0.1 M phosphate buffer (pH 2.5):methanol:acetonitrile-89:9:2 v/v, containing 1mM octylsulphate. The frozen samples were weighed and homogenized in 0,1 M perchloric acid, containing […] sodium bisulphite, 1 mM ethylene diamine tetraacetic acid (EDTA) and epinine as an internal standard. The supernatants were injected directly onto a Supelcosil C18 (3 µM) column, connected to a detector (ESA Coulochem 5100A), set to 0.05/0.40 V.

[2] = Temperature effects: body temperature in rats; assay type: in vivo
Description: Method: In each test, thirty rats, weighing approx 250 g, housed in 6 cages of 5 rats, are used. The rats have free access to food and water. Before the start of testing, they are numbered and left undisturbed for at last 1 hour. Before the administration of the compound, the body temperature of each rat is measured using a YSI 2100 tele-thermometer. The thermometer probe is inserted 10 cm into the rectum and left in pace for thirty seconds. The drug is then administered either subcutaneously or orally. In each experiment vehicle and 4 doses of drug are tested. One rat in each cage receives each treatment. The order of treatment is rotated since disturbance to the cage increases the activity of the rats, and thereby their body temperature. Thirty minutes after drug administration the rats' body temperature are measured again. The procedure is repeated 60, 90 and 120 minutes after drug administration. The resultant data on body temperature is subjected to analysis of variance. A significant group by time interaction is taken as an indication of drug effect. To obtain the minimum effective dose, the mean temperature for each of the drug treated groups are compared with that of the vehicle group at each time point using Dunnett's t-test with a level of significance of p<0.02. […]

| Structure (SMILES) | Ki (5-HT1A receptors) | bioavailability [1] | synthesis rate of 5-HT, measured as 5-HTP level in rat brain (synthesis rate of 5-HT; 0.2 mg/kg oral administration) | synthesis rate of 5-HT, measured as 5-HTP level in rat brain (synthesis rate of 5-HT; 0.1trig/kg subcutaneous administration) | body temperature ([2]; 1 mg/kg oral administration) | body temperature ([2]; subcutaneous administration of 0.3 mg/kg) |
| --- | --- | --- | --- | --- | --- | --- |
| CCCN(C(C)C)C1COc2cccc(C(=O)NC(C)C)c2C1 (racemic) [racemate, 3-(N-Isopropyl-N-n-propylamino)-5-(N-isopropyl)carbamoyl chroman] | 24 nM | 21% |  |  |  |  |
| CCCN(C(C)C)[C@H]1COc2cccc(C(=O)NC(C)C)c2C1 [(R)-enantiomer, (R)-3-(N-Isopropyl-N-n-propylamino)-5-(N-isopropyl)carbamoylchroman] | 8.6 nM | 17% | significant decrease | significant decrease | significant temperature decrease | significant temperature decrease |
| CCCN(C(C)C)[C@@H]1COc2cccc(C(=O)NC(C)C)c2C1 [(S)-enantiomer, (S)-enantiomer of 3-(N-isopropyl-N-n-propylamino)-5-(N-isopropyl)carbamoylchroman] | > 1000 nM |  |  |  |  |  |

Source: patent publication EP0607274B1, “3-(N-ISOPROPYL-N-n-PROPYLAMINO)-5-(N-ISOPROPYL)CARBAMOYLCHROMAN” (priority 1991, dated 1993)
